Assay results taken from patent EP2444396A1, “PHOTOPROTECTIVE COMPOSITION” (Apoteknos Para La Piel, S.L., priority 2009, dated 2010).
Values joined by “and” are separate entries in the source; they are usually repeats but may differ in a detail not shown here. Identical values can stand only once. Marks after values point to notes of the source that are not given here.

Columns and labels:
ERβ = molecular target: T1, ERβ (Homo sapiens, UniProt Q92731); test: Estrogenicity reporter gene bioassay (luciferase activity) in HELN-ERβ cells; format: cell-based
T1 construct: expressed in transfected cells; host or cells: HeLa (HELN-ERβ)
T1 sequence (Q92731 whole entry, species assumed): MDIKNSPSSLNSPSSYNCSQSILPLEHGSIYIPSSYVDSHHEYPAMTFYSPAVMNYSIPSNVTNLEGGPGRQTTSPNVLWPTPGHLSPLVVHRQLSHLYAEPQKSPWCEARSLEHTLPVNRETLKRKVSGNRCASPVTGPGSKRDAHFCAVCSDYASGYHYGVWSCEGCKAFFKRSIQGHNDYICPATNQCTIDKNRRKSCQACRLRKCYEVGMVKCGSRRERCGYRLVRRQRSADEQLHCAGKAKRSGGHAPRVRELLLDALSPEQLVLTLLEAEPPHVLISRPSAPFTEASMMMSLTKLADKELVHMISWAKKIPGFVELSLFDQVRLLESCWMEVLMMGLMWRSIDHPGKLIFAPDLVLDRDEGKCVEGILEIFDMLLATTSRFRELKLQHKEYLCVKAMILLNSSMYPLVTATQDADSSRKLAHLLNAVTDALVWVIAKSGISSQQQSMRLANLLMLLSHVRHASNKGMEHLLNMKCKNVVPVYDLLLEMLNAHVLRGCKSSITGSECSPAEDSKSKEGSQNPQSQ
From the text: Briefly, the transactivation bioassay (Reporter gene assay) used are based on the use of breast and uterine cancer cell lines transfected with different native or modified hormone receptors. The resulting cell lines further contain a reporter gene regulated by estrogens through the estrogen response element, the globin promoter and the luciferase gene.
HELN-ERα and HELN-ERβ cell lines were obtained by means of transfecting the HeLa uterine cancer cell line. In a first phase, said cells were transfected with an estrogen sensitive response element and then with the estrogen receptor alpha or beta (ERα or ERβ). The selection of clones resistant to geneticin and puromycin was performed using a concentration of 1 mg/mL and 0.5 mg/mL, respectively. The maintenance medium as well as the experimental medium of these 2 cell lines is DMEM F12 without phenol red supplemented with 6% of FBS (lacking of estrogens), 1% of penicillin / streptomycin, 1 mg/mL of geneticin and 0.5 µg/mL of puromycin.
The cells were seeded at a density of 5x10^4 cells per well in white opaque 96 well plates in 150 µL of experimental medium. After 8 hours, the compounds to be assayed (p-nitrolophine and estradiol) were prepared (concentrated 4x) in the same medium and were added to each well (50 µl). The cells were incubated for 16 hours at 37°C. At the end of the incubation, the medium was removed and replaced with fresh medium containing […] luciferin [at that concentration, luciferin diffuses into cell producing a luminescent signal which is stable after 5 minutes and for at least 2 hours]. The plates were then introduced in the luminometer to measure the luminescence for 2 seconds. A YicroBeta Trilux luminometer (EGG Wallac) apparatus was used to detect luciferase activity.
The assays were preformed in quadruple for each concentration (0.01-10 µM) in at least three independent experiments. […] The values of luciferase activity obtained were analyzed using the one-way ANOVA statistic test. The differences were considered significant when P was less than […] (P < 0.05).

[1] = Specific molar absorptivity of p-nitrolophine in MeOH at 379 nm; format: physicochemical
Description: As a preliminary step, in the case of p-nitrolophine the specific molar absorptivity of the molecule (ε) (A^11) was determined. To that end, 50.4 mg of p-nitrolophine were weight, they were dissolved in 100.0 mL of MeOH (ppa); 4 dilutions were then performed by taking 1.0, 2.0, 5.0 and 10.0 mL from this mother liquor and topping up each of them to a volume of 100.0 ml with MeOH (ppa). […]
The slope of the straight line obtained from these points (Y= 16.717x + 0.03; R2 = 0.9993) therefore coincides with the value of specific molar absorptivity of p-nitrolophine at 379 nm ε(379nm) = 16.717 A.U.L/mol [formula]

[2] = tested on: inflammation induced by phorbol 12-myristate-13-acetate (PMA); test: Topical anti-inflammatory activity: ear inflammation induced by PMA in mice; format: in vivo; design: RE / RE Average: unit not given here; settings: for LE Average: left ear (non treated); for LE Average / RE Average: group average; for RE Average: right ear (treated); for LE: weight of 6 mm portion of left ear (non treated); for LE / RE: individual mice; for RE: weight of 6 mm portion of right ear (treated)
Description: The topical anti-inflammatory activity of p-nitrolophine has been analyzed in this study since erythema is a inflammatory process. Specifically, the inhibition of inflammation induced by phorbol 12-myristate-13-acetate (PMA) was evaluated and compared with an anti-inflammatory product of reference (indometacin). 37 mice were divided into the following groups: positive control group (PMA 0.5 mg); negative control group (indometacin 0.5 mg); treated groups (0.5 mg and 1 mg of p-nitrolophine). All the solutions were prepared using acetone (ppa) as vehicle. 20 µL of solution of 25 mg/mL of phorbol 12-myristate-13-acetate (PMA) [Fluka cod 79346] (10 µL in each face) was administered in the right ear of each mouse. Immediately after administering the PMA, nothing more was administered into the positive control group; 20 µL of the solution of 25 mg/mL of indometacin was administered to the negative control group, and 20 µL of the solution of 25 or 50 mg/mL of 4-nitrolophine was administered in the same manner to the treated groups. Animals having no lesions or skin and ear irritation were used.
After 4 hours of post-treatment, the mice were sacrificed through cervical fracture and a portion of 6 mm in diameter was obtained from each ear with a hollow punch which was weight in precision analytical balance. The difference in weight (Δ) between the right ear (treated) and the left ear (non treated) for each animal and for each group were calculated. The percentage of inhibition (% inh) was estimated and calculated according to the following equation: % inh = 100(1-Δt/Δc) [formula] wherein Δt represents the difference in the treated groups and Δc the difference for the […].
In order to analyze the results, an one way ANOVA and Dunnet test for multiple comparison was used, values of P<0.05 were considered significant. A software, Graphpad Instat Version 3.06, was used for such purposes.

[3] = UV spectrum: wavelengths of maximum absorption and absorbance (Cecil 2021 UV-Visible Spectrophotometer); format: physicochemical

activity at 0.01 µM (ERβ): 9.6 ± 1.4% | activity at 0.03 µM (ERβ): 10 ± 0.8% | activity at 0.1 µM (ERβ): 10.2 ± 1.3% | activity at 0.3 µM (ERβ): 10.3 ± 1.1% | activity at 1 µM (ERβ): 10.1 ± 1.3% | activity at 3 µM (ERβ): 10.2 ± 1.9% | activity at 10 µM (ERβ): 10.6 ± 1.2% | estrogenicity (ERβ; HELN-ERβ line, conclusion in words): not an estrogenic compound | specific molar absorptivity ε(379nm) ([1]; 379 nm, slope of the straight line): 16.717 A.U.L/mol | Abs. at 379 nm (A.U.) ([1]; Concentration (mol) 0.0000147): 0.2572 A.U. | Abs. at 379 nm (A.U.) ([1]; Concentration (mol) 0.00002953): 0.5214 A.U. | Abs. at 379 nm (A.U.) ([1]; Concentration (mol) 0.00007382): 1.301 A.U. | Abs. at 379 nm (A.U.) ([1]; Concentration (mol) 0.00014764): 2.4819 A.U. | UV spectrum A (a.u) ([3]; absorbance at the maximum of the same line): 0.715 a.u and 0.669 a.u and 0.774 a.u | UV spectrum λ (nm) ([3]; wavelengths of the maximum absorption): 221.0 nm and 255.0 nm and 379.0 nm
Structure (SMILES): O=[N+]([O-])c1ccc(-c2nc(-c3ccccc3)c(-c3ccccc3)[nH]2)cc1 [p-nitrolophine, 2-(4-nitrophenyl)-4,5-diphenyl-1H-imidazole]
% inhibition ([2]; 4 hours): 100** (q = 9.5) % | Average (Δ = RE - LE) ([2]; Dose (mg/ear) 0.5, 4 hours): -0.13 | % inhibition ([2]; Dose (mg/ear) 1, n=4, tendency, not statistically compared): ~90% | Average (Δ = RE - LE) ([2]; Dose (mg/ear) 1, n=4, 4 hours): 0.52 | LE Average ([2]; 0.5 mg group, 4 hours): 6.7 | LE Average ([2]; 1 mg group, 4 hours): 5.9 | RE Average ([2]; 0.5 mg, 4 hours): 6.6 | RE Average ([2]; 1 mg, 4 hours): 6.4 | LE ([2]; 0.5 mg group, 4 hours, listed as 4-nitrolophine): 9.9 and 7.5 (2×) and 6.2 (2×) and 6.4 and 6.7 (2×) and 5.6 and 5.2 and 5.9 and 7.8 and 6 | LE ([2]; 1 mg group, 4 hours, listed as 4-Nitrolophine): 5.6 and 5.8 and 5,5 and 6.6 | RE ([2]; 0.5 mg, 4 hours, listed as 4-nitrolophine): 7.3 and 7 and 5.9 (2×) and 5.6 and 6.6 (2×) and 7.2 and 7.8 and 6.5 and 6 and 7.7 and 5.8 | RE ([2]; 1 mg, 4 hours, listed as 4-Nitrolophine): 5.9 and 7.3 and 6.2 (2×)
